From ChEMBL document CHEMBL1201862, “PubChem BioAssay data set” (2004)
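Assay format: 96-well plates, 48-hour exposure. Abbreviation: GI50, concentration required for 50% inhibition of growth.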 Calls of active or inactive are those of the source. Rule as the data show it: active = GI50 up to about 1.1 µM and inactive = higher.

Legend:
Assay in all cases: NCI-60 cell line screen, 48 h
[1] = system: SR
[2] = system: SW-620
[3] = system: HOP-62
[4] = system: SK-OV-3
[5] = system: MDA-MB-435
[6] = system: SF-295
[7] = system: OVCAR-4
[8] = system: COLO 205
[9] = system: HOP-92
[10] = system: SN12C
[11] = system: NCI-H460
[12] = system: DU-145
[13] = system: BT-549
[14] = system: HCC 2998
[15] = system: UO-31
[16] = system: EKVX
[17] = system: HT-29
[18] = system: SK-MEL-5
[19] = system: SF-268
[20] = system: LOX IMVI
[21] = system: SNB-19
[22] = system: MDA-MB-231
[23] = system: PC-3
[24] = system: T47D
[25] = system: HCT-116
[26] = system: SNB-75
[27] = system: OVCAR-5
[28] = system: U-251
[29] = system: SK-MEL-2
[30] = system: NCI-H522
[31] = system: SK-MEL-28
[32] = system: OVCAR-8
[33] = system: HL-60
[34] = system: HCT-15
[35] = system: 786-0
[36] = system: SF-539
[37] = system: CAKI-1
[38] = system: Hs-578T
[39] = system: K562
[40] = system: Malme-3M
[41] = system: CCRF-CEM
[42] = system: NCI/ADR-RES
[43] = system: MOLT-4
[44] = system: RXF 393
[45] = system: UACC-257
[46] = system: ACHN
[47] = system: KM12
[48] = system: UACC-62
[49] = system: RPMI-8226
[50] = system: TK-10
[51] = system: IGROV-1
[52] = system: M14
[53] = system: NCI-H226
[54] = system: A549
[55] = system: MCF7
[56] = system: NCI-H23
[57] = system: OVCAR-3
[58] = system: A498
[59] = system: MDA-N

## COc1ccc(-c2nc(-c3cc4ccccc4oc3=O)cs2)cc1
[1]
  GI50: > 100 µM (inactive)
[2]
  GI50: > 100 µM (inactive)
[3]
  GI50: 32 µM (inactive)
[4]
  GI50: 29.6 µM (inactive)
[5]
  GI50: > 100 µM (inactive)
[6]
  GI50: > 100 µM (inactive)
[7]
  GI50: > 100 µM (inactive)
[8]
  GI50: > 100 µM (inactive)
[9]
  GI50: 60.8 µM (inactive)
[10]
  GI50: 44.5 µM (inactive)
[11]
  GI50: 59.2 µM (inactive)
[12]
  GI50: > 100 µM (inactive)
[13]
  GI50: > 100 µM (inactive)
[14]
  GI50: 77.8 µM (inactive)
[15]
  GI50: 35.7 µM (inactive)
[16]
  GI50: > 100 µM (inactive)
[17]
  GI50: 95.9 µM (inactive)
[18]
  GI50: > 100 µM (inactive)
[19]
  GI50: 61.2 µM (inactive)
[20]
  GI50: > 100 µM (inactive)
[21]
  GI50: 30.1 µM (inactive)
[22]
  GI50: 20.9 µM (inactive)
[23]
  GI50: > 100 µM (inactive)
[24]
  GI50: > 100 µM (inactive)
[25]
  GI50: 37.8 µM (inactive)
[26]
  GI50: 52.2 µM (inactive)
[27]
  GI50: > 100 µM (inactive)
[28]
  GI50: 21.9 µM (inactive)
[29]
  GI50: > 100 µM (inactive)
[30]
  GI50: > 100 µM (inactive)
[31]
  GI50: > 100 µM (inactive)
[32]
  GI50: 23.2 µM (inactive)
[33]
  GI50: > 100 µM (inactive)
[34]
  GI50: > 100 µM
[35]
  GI50: 31.3 µM (inactive)
[36]
  GI50: 30.9 µM (inactive)
[37]
  GI50: > 100 µM (inactive)
[38]
  GI50: 40.9 µM (inactive)
[39]
  GI50: > 100 µM (inactive)
[40]
  GI50: > 100 µM (inactive)
[41]
  GI50: > 100 µM (inactive)
[42]
  GI50: 47.9 µM (inactive)
[43]
  GI50: > 100 µM (inactive)
[44]
  GI50: 85.3 µM (inactive)
[45]
  GI50: > 100 µM (inactive)
[46]
  GI50: 34 µM (inactive)
[47]
  GI50: > 100 µM (inactive)
[48]
  GI50: > 100 µM (inactive)
[49]
  GI50: > 100 µM (inactive)
[50]
  GI50: 70.6 µM (inactive)
[51]
  GI50: 86.1 µM (inactive)
[52]
  GI50: > 100 µM (inactive)
[53]
  GI50: > 100 µM (inactive)
[54]
  GI50: 85.7 µM (inactive)
[55]
  GI50: > 100 µM (inactive)

## COc1cc(/C=N\O)nc(-c2ccccn2)c1
[1]
  GI50: 0.0438 µM (active)
[56]
  GI50: 0.51 µM (active)
[2]
  GI50: 0.664 µM (active)
[3]
  GI50: 0.137 µM (active)
[4]
  GI50: 0.45 µM (active)
[57]
  GI50: 0.222 µM (active)
[5]
  GI50: 1.6 µM (inactive)
[6]
  GI50: 0.339 µM (active)
[7]
  GI50: 0.504 µM (active)
[8]
  GI50: 0.188 µM (active)
[9]
  GI50: 1.44 µM (inactive)
[10]
  GI50: 0.264 µM (active)
[11]
  GI50: 0.227 µM (active)
[12]
  GI50: 0.236 µM (active)
[13]
  GI50: 1.5 µM (inactive)
[14]
  GI50: 46.8 µM (inactive)
[15]
  GI50: 0.161 µM (active)
[16]
  GI50: 0.195 µM (active)
[17]
  GI50: 0.569 µM (active)
[18]
  GI50: 0.298 µM (active)
[19]
  GI50: 0.452 µM (active)
[20]
  GI50: 0.221 µM (active)
[21]
  GI50: 1.11 µM (active)
[22]
  GI50: 1.05 µM (active)
[23]
  GI50: 2.43 µM (inactive)
[24]
  GI50: 1.18 µM (inactive)
[25]
  GI50: 0.301 µM (active)
[26]
  GI50: 1.28 µM (inactive)
[27]
  GI50: 3.08 µM (inactive)
[28]
  GI50: 0.553 µM (active)
[30]
  GI50: 0.129 µM (active)
[31]
  GI50: 0.729 µM (active)
[32]
  GI50: 0.2 µM (active)
[58]
  GI50: 1.3 µM (inactive)
[33]
  GI50: 0.124 µM (active)
[34]
  GI50: 0.092 µM
[35]
  GI50: 0.179 µM (active)
[36]
  GI50: 0.575 µM (active)
[37]
  GI50: 0.303 µM (active)
[38]
  GI50: 47.2 µM (inactive)
[39]
  GI50: 0.399 µM (active)
[40]
  GI50: 0.741 µM (active)
[41]
  GI50: 0.175 µM (active)
[42]
  GI50: 0.36 µM (active)
[43]
  GI50: 0.173 µM (active)
[44]
  GI50: 0.363 µM (active)
[45]
  GI50: 2.4 µM (inactive)
[46]
  GI50: 0.0923 µM (active)
[47]
  GI50: 0.55 µM (active)
[48]
  GI50: 0.448 µM (active)
[49]
  GI50: 0.337 µM (active)
[50]
  GI50: > 30.8 µM (inactive)
[51]
  GI50: 0.202 µM (active)
[52]
  GI50: 0.259 µM (active)
[53]
  GI50: 0.363 µM (active)
[54]
  GI50: 0.344 µM (active)
[55]
  GI50: 0.474 µM (active)

## CO[C@H]1O[C@@H]2CO[C@@H](c3ccccc3)O[C@H]2[C@@H]2C/C=C\CCC[C@@]12O
[1]
  GI50: 20.3 µM (inactive)
[56]
  GI50: 24 µM (inactive)
[2]
  GI50: 26.9 µM (inactive)
[3]
  GI50: 18 µM (inactive)
[4]
  GI50: 29 µM (inactive)
[57]
  GI50: 16.3 µM (inactive)
[5]
  GI50: 24 µM (inactive)
[6]
  GI50: 19.7 µM (inactive)
[7]
  GI50: 32.8 µM (inactive)
[8]
  GI50: 17.2 µM (inactive)
[9]
  GI50: 20 µM (inactive)
[10]
  GI50: 17.7 µM (inactive)
[11]
  GI50: 16.8 µM (inactive)
[12]
  GI50: 20.7 µM (inactive)
[13]
  GI50: 20.2 µM (inactive)
[14]
  GI50: 12.7 µM (inactive)
[15]
  GI50: 30.8 µM (inactive)
[16]
  GI50: 19.4 µM (inactive)
[17]
  GI50: 17.9 µM (inactive)
[18]
  GI50: 17.8 µM (inactive)
[19]
  GI50: 21.6 µM (inactive)
[20]
  GI50: 17.8 µM (inactive)
[21]
  GI50: 38.7 µM (inactive)
[22]
  GI50: 29 µM (inactive)
[23]
  GI50: 25.3 µM (inactive)
[24]
  GI50: 33.2 µM (inactive)
[25]
  GI50: 16.1 µM (inactive)
[26]
  GI50: 59.6 µM (inactive)
[27]
  GI50: 21.7 µM (inactive)
[28]
  GI50: 20.8 µM (inactive)
[29]
  GI50: 16 µM (inactive)
[30]
  GI50: 20.1 µM (inactive)
[31]
  GI50: 30.1 µM (inactive)
[32]
  GI50: 34.1 µM (inactive)
[59]
  GI50: 25.1 µM (inactive)
[58]
  GI50: 14.8 µM (inactive)
[33]
  GI50: 19.8 µM (inactive)
[34]
  GI50: 24.4 µM
[35]
  GI50: 16.7 µM (inactive)
[37]
  GI50: 33.4 µM (inactive)
[39]
  GI50: 20 µM (inactive)
[41]
  GI50: 31 µM (inactive)
[42]
  GI50: 26.9 µM (inactive)
[43]
  GI50: 17 µM (inactive)
[44]
  GI50: 17.2 µM (inactive)
[45]
  GI50: 18.5 µM (inactive)
[46]
  GI50: 17.3 µM (inactive)
[47]
  GI50: 22.5 µM (inactive)
[48]
  GI50: 15.7 µM (inactive)
[49]
  GI50: 17.2 µM (inactive)
[50]
  GI50: 34.8 µM (inactive)
[51]
  GI50: 30 µM (inactive)
[52]
  GI50: 22.4 µM (inactive)
[53]
  GI50: 20.7 µM (inactive)
[54]
  GI50: 26.9 µM (inactive)
[55]
  GI50: 19.2 µM (inactive)
